Molecules are shown by their SMILES. “Also recorded” adds a separate entry of the source. Where two headings read alike, the source gives them in different places.

The target of data set [1] is T1, LRRK2 G2019S (Homo sapiens, UniProt Q5S007, G2019S).
T1 construct: purchased Invitrogen (Life Technologies Corporation)
Briefly: LRRK2 G2019S kinase activity assay (LanthaScreen TR-FRET). Particulars: 250 pM LRRK2 G2019S, 1.3 mM ATP, 3 h at 30° C.; n≥2 tests. Type of data set: biochemical. In a few lines:
(§1)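 TR-FRET measured phosphorylation of fluorescein-ERM LRRKtide by human LRRK2 residues 970–2527, wild-type or G2019S, detected with a terbium anti-phospho-LRRKtide antibody. The 520/495 nm ratio was normalized to uninhibited and inhibitor controls. IC50 came from a Hill fit, log-averaged over independent experiments.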

For data set [2], the target named is T2, LRRK2 WT (Homo sapiens, UniProt Q5S007).
T2 construct: comprises residue 970 to 2527 of the full length human wild-type LRRK2 kinase; purchased Invitrogen (Life Technologies Corporation)
T2 sequence (Q5S007 970-2527): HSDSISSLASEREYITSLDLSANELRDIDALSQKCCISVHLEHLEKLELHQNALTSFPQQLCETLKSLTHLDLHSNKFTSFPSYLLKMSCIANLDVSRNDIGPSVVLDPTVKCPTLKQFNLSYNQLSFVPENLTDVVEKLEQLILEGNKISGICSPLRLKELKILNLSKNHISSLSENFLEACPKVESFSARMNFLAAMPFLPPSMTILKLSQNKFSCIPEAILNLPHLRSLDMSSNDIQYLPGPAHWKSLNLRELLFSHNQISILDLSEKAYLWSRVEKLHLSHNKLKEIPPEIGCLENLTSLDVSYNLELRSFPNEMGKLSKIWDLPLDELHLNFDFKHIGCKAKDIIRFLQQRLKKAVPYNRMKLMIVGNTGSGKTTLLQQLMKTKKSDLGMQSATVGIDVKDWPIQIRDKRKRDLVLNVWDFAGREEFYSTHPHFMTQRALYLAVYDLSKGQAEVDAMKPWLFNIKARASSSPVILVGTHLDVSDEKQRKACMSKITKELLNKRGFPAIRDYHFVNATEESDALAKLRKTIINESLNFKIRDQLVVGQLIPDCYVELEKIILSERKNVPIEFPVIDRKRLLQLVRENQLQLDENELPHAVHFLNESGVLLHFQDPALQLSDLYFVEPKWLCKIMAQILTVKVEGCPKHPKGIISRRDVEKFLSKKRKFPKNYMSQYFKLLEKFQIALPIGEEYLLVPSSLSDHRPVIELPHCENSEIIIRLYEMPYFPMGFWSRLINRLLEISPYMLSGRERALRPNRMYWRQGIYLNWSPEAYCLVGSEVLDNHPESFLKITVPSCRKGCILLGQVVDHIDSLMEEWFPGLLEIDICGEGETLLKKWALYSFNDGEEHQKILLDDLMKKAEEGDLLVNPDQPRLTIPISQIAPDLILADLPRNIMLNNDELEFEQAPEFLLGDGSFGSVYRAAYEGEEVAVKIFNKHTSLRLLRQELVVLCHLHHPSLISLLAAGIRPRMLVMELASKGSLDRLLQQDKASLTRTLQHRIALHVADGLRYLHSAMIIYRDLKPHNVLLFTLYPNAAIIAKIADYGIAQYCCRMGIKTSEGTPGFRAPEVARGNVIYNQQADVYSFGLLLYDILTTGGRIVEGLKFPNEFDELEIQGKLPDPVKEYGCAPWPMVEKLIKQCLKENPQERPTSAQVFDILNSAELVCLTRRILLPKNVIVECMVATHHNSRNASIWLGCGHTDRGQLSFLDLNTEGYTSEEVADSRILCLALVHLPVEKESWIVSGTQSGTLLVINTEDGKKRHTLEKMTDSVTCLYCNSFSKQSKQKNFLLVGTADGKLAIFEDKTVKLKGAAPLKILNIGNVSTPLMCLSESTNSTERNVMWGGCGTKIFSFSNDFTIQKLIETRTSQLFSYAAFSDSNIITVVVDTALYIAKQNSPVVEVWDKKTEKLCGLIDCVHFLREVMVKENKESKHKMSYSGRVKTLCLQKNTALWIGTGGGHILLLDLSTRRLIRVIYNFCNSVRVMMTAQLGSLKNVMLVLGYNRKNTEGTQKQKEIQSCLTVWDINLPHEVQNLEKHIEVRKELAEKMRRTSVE
In words: LRRK2 wild-type kinase activity assay (LanthaScreen TR-FRET). The class given is biochemical. As to conditions: 1 nM LRRK2 WT, 1.3 mM ATP, 3.5 h at 30° C.; n≥2 tests. In a few lines: as §1
For orientation: Time-resolved FRET reads energy transfer from a long-lived donor to a nearby acceptor.

The subject of data set [3] is pooled donor, cryopreserved hepatocytes. Briefly: Hepatocyte intrinsic clearance assay. The class given is in vitro ADME, human. Particulars: 0.1 μM, 2 h at 37° C., 1×10^6 hepatocytes/mL; * measured on 3 separate occasions, ** on a single occasion. The protocol:
(§2) Test compounds (final concentration 0.1 μM, 0.05% organic) were incubated for 2 h at 37° C., with shaking, in supplemented Leibovitz L-15 media (pH7.4) containing commercially sourced, pooled donor, cryopreserved hepatocytes (final concentration 1×10^6 hepatocytes/m L). The CLint reactions (350 μL) were initiated by addition of test compound. Aliquots (25 μL) were taken at 1, 5, 10, 15, 30, 60, 90 and 120 minutes and then protein crashed with ice-cold acetonitrile containing internal standard (150 μL) then centrifuged (1960 g for 20 minutes at 4° C.). Supernatant was diluted (1:4) with deionized water then analyzed by liquid chromatography (LC)-tandem mass spectrometry (MS/MS). The intrinsic clearances (CLint) were calculated from the slope (k) of the linear regressions of percentages of compound remaining in incubation against incubation time, according to equations 2 and 3.

A short description of data set [4]: Hepatocyte intrinsic clearance assay. The class given is in vitro ADME, human. Particulars: human, pooled donor, cryopreserved hepatocytes, pH 7.4, 0.1 μM, 2 h at 37° C., 1×10^6 hepatocytes/mL; * measured on 3 separate occasions, ** on a single occasion. As for the experimental part:
as §2

Data set [5] in a line: GSH adduct screening. Particulars: 1 μM, 3 h at 37° C., HLM 0.5 mg/mL, NADPH, with and without GSH. The class given is in vitro ADME, human. As for the experimental part: Test compounds (final concentration 1 μM, 0.25% organic) were incubated for 3 h at 37° C. in commercially sourced, pooled donor, human liver microsomes (HLM, final concentration 0.5 mg/mL) with and without addition of glutathione (GSH; final concentration […]). The metabolic reaction was initiated by addition of microsomal solution to the mixture of cofactor NADPH (final concentration 1 mM), test compound and GSH. After 3 h of incubation in a water bath at 37° C., the reaction was stopped by addition of 0.2% formic acid in acetonitrile, followed by mixing and centrifugation (16000 g for 5 minutes). Supernatant was diluted (1:1) with HPLC water then analyzed by liquid chromatography (LC)-quadrupole time-of-flight mass spectrometry (QTOF-MS). Accurate mass MS and MS/MS spectra from samples with GSH and without GSH, respectively, were compared to identify detectable GSH and/or cysteine related adducts.

Data set [6] is described as follows: Rat B/P (brain disposition). The class given is in vivo, male Sprague-Dawley rats. Particulars: male, Sprague-Dawley, oral gavage 10 mg/kg; for concentration at 1 h / Kp uu at 1 h / Kp at 1 h: time point 1.0 h; for concentration at 1 h / Kp at 1 h / concentration at 0.5 h / Kp at 0.5 h: mean ± stdev; for Kp uu at 1 h / Kp at 1 h / Kp at 0.5 h / Kp uu at 0.5 h: brain/plasma; for Kp uu at 1 h / Kp uu at 0.5 h: fubrain from brain homogenate; for Kp at 1 h / Kp at 0.5 h: n = 3; for concentration at 0.5 h / Kp at 0.5 h / Kp uu at 0.5 h: time point 0.5 h. The protocol:
Brain disposition was evaluated for each compound in male Sprague-Dawley rats (n=3, standard body weight). […] Isolated plasma and brain homogenates were extracted by standard protein precipitation in acetonitrile, containing internal standard, followed by LC-MS/MS analysis using an optimized analytical method. Concentrations of test compound in plasma and brain were quantified against matrix matched calibration standards. The total plasma and brain concentration data are presented in Table 7 alongside the calculated brain Kp (total brain concentration:total plasma concentration ratio).

Data set [7] can be described thus: Free fraction in plasma (equilibrium dialysis). The class given is in vitro ADME, male Sprague-Dawley rat. Particulars: rat plasma, 1 μM, 5 h at 37° C. As for the experimental part:
The free fractions in male Sprague-Dawley rat or female Gottingen minipig plasma (fuplasma) and rat brain homogenate (fubrain) were determined by equilibrium dialysis using 96-well HTD-dialysis plates with dialysis membranes (molecular weight cut off 12-14 KDa). One side of the HTD-dialysis plate was loaded with matrix (plasma or brain homogenate) and the other side with buffer (100 mM sodium phosphate buffer, pH 7.4). Test compounds were dissolved in DMSO then spiked (5 μL of 0.2 mM) into blank (995 μL) plasma or diluted brain homogenate (1:4 ratio in phosphate buffer) giving a final nominal concentration 1 μM (≤0.5% DMSO). The matrices were loaded into respective chambers and equilibrated against phosphate buffer for 5 h at 37° C. (in a humidified air incubator with 5% CO2 with shaking). Samples from both chambers (buffer and plasma or brain homogenate) were aliquoted to fresh 96-well polypropylene plates then matrix matched using an equal volume of opposite blank matrix before extraction with cold solvent (3 volumes acetonitrile) containing an appropriate bioanalytical internal standard. After centrifugation (20 min, 3200 g, 4° C.) the supernatants were diluted with appropriate volumes of water and compound concentrations were quantified by LC/MS-MS against matrix matched calibration standards. The fuplasma and fubrain were calculated as a percent free according to equation 4 below.
Where [F] is the analyte concentration on the buffer (receiver) side of the membrane; [T] is the analyte concentration on the plasma or brain (donor) side of the membrane; [TO] is the analyte concentration in the plasma or brain sample at time zero; D is matrix dilution factor which is determined as 4 for brain matrix and 1 for plasma matrix in these assays.
Background: In equilibrium dialysis free small molecules cross a membrane that holds back macromolecules.

The mark [8] stands for this setting: brain, n = 3, read-out: Total brain concentration.
[9] abbreviates: plasma, n = 3, read-out: Total plasma concentration.

T1 sequence (Q5S007 970-2527 G2019S): as the sequence (Q5S007 970-2527) above, with G1050S counted along it

Turning to `Cc1c2c(nn1[C@H]1CCCOC1)OCCCn1nc(Cl)c3cnc(nc31)N2` (single isomer, unassigned) [Example 3, (R) or (S)-8-Chloro-3-methyl-2-(tetrahydro-2H-pyran-3-yl)-2,4,12,13-tetrahydro-11H-5,7-(azenometheno)dipyrazolo[3,4-b:5′,1′-g][1]oxa[4,6,8]triazacycloundecine], the half-maximal inhibitory concentration (IC50) (commonly the concentration at which inhibition is half-maximal) was determined as 2.2 nM in data set [1] and 9.2 nM in data set [2]. Further, the “CLint” value in data set [3] turned out to be 0.33 L/h/kg.

For the molecule `Cc1c2c(nn1[C@@H]1CCO[C@H](C)C1)OCCCn1nc(Cl)c3cnc(nc31)N2` (single isomer, unassigned) [Example 18], the IC50 in data set [1] turned out to be 3.6 nM; in data set [2], 11 nM. Besides, in data set [4], the CLint scaled (as a rule, a measure of how fast metabolising enzymes remove a compound, apart from limits set by blood flow) at 0.1 μM is under 0.24 L/h/kg. For the same molecule, the “Adduct detected in GSH supplemented HLMs” value in data set [5] is reported as “+GSH”. The concentration at 1 h in data set [6] (setting [8]) worked out at 897 ± 292 ng/g; in data set [6] (setting [9]), 0.636 ± 0.265 µg/mL. In data set [6], the Kp uu at 1 h was found to be 0.35 ± 0.05. In addition, the Kp (usually tissue or fluid exposure divided by exposure in the circulation) at 1 h in data set [6] was found to be 1.47 ± 0.22. Besides, in data set [7], the “fuplasma (% free)” value is on record as 25.0 % free.

For `[2H]C([2H])([2H])c1c2c(nn1[C@H]1CCO[C@@H](C)C1)OCCCn1nc(Cl)c3cnc(nc31)N2` (single isomer, unassigned) [Example 51, (+)-8-Chloro-3-(methyl-d3)-2-((2R,4R) or (2S,4S)-2-methyltetrahydro-2H-pyran-4-yl)-2,4,12,13-tetrahydro-11H-5,7-(azenometheno)dipyrazolo[3,4-b:5′,1′-g][1]oxa[4,6,8]triazacycloundecine], the IC50 in data set [1] stood at 5.3 nM; in data set [2] it was 9 nM. In data set [4], this molecule displayed a CLint scaled at 0.1 μM of under 0.24 L/h/kg. Further, the “Adduct detected in GSH supplemented HLMs” value in data set [5] is listed as “+GSH”.

In the case of `Cc1c2c(nn1C1CCOCC1)OCCCn1nc(Cl)c3cnc(nc31)N2` [Example 2, 8-Chloro-3-methyl-2-(tetrahydro-2H-pyran-4-yl)-2,4,12,13-tetrahydro-11H-5,7-(azenometheno)dipyrazolo[3,4-b:5′,1′-g][1]oxa[4,6,8]triazacycloundecine], the CLint scaled at 0.1 μM in data set [4] is 0.85 L/h/kg. For the same molecule, the “Adduct detected in GSH supplemented HLMs” value in data set [5] was “+GSH”.

Consider `CCc1c2c(nn1C1CCOCC1)OCCCn1nc(Cl)c3cnc(nc31)N2` [Example 17, 8-Chloro-3-ethyl-2-(tetrahydro-2H-pyran-4-yl)-2,4,12,13-tetrahydro-11H-5,7-(azenometheno)dipyrazolo[3,4-b:5′,1′-g][1]oxa[4,6,8]triazacycloundecine], for which the IC50 in data set [1] was found to be 5.8 nM; in data set [2], 15 nM. Besides, the CLint scaled at 0.1 μM in data set [4] is 0.34 L/h/kg. Besides, in data set [5], the “Adduct detected in GSH supplemented HLMs” value is “did not form GSH adduct; also recorded: None detected”. In addition, the concentration at 1 h was determined as 1150 ± 59 ng/g in data set [6] (setting [8]) and 0.653 ± 0.052 µg/mL in data set [6] (setting [9]). Also, in data set [6], the Kp at 1 h was 1.76 ± 0.08. The molecule further returned a Kp uu at 1 h in data set [6] (po, 10 mg/kg) of 0.59 ± 0.03. The “fuplasma (% free)” value in data set [7] amounted to 27.5 % free.

For `CO[C@H]1CC[C@H](n2nc3c(c2C)Nc2ncc4c(Cl)nn(c4n2)CCCO3)CC1` [Example 37, 8-Chloro-2-((1r,4r)-4-methoxycyclohexyl)-3-methyl-2,4,12,13-tetrahydro-11H-5,7-(azenometheno)dipyrazolo[3,4-b:5′,1′-g][1]oxa[4,6,8]triazacycloundecine], the IC50 in data set [1] was determined as 3.7 nM; in data set [2] it was 8.5 nM. In data set [4], this molecule displayed a CLint scaled at 0.1 μM of under 0.24 L/h/kg. Further, the “Adduct detected in GSH supplemented HLMs” value in data set [5] is recorded as “+GSH”. For the same molecule, the concentration at 0.5 h in data set [6] (setting [8]) stood at 683 ± 139 ng/g; in data set [6] (setting [9]), 0.391 ± 0.096 µg/mL. For the same molecule, the Kp at 0.5 h in data set [6] is 1.87 ± 0.76. Moreover, in data set [6] (po, 10 mg/kg), the Kp uu at 0.5 h was 0.47 ± 0.19. Also, the “fuplasma (% free)” value in data set [7] was found to be 18.2 % free.

In the case of `Cc1c2c(nn1[C@H]1C[C@@H](C)O[C@@H](C)C1)OCCCn1nc(Cl)c3cnc(nc31)N2` [Example 41, 8-chloro-2-((2R,4r,6S)-2,6-dimethyltetrahydro-2H-pyran-4-yl)-3-methyl-2,4,12,13-tetrahydro-11H-5,7-(azenometheno)dipyrazolo[3,4-b:5′,1′-g][1]oxa[4,6,8]triazacycloundecine], the IC50 is 6.4 nM in data set [1] and 17 nM in data set [2]. The same molecule showed a CLint scaled at 0.1 μM in data set [4] of 0.34 L/h/kg. For the same molecule, the concentration at 0.5 h in data set [6] (setting [8]) was 620 ± 30 ng/g; in data set [6] (setting [9]), 0.25 ± 0.024 µg/mL. Moreover, the Kp at 0.5 h in data set [6] was determined as 2.5 ± 0.31. Also, the “fuplasma (% free)” value in data set [7] was 25.2 % free.

As for `Cc1c2c(nn1[C@@H]1C[C@H]3CC[C@@H](C1)O3)OCCCn1nc(Cl)c3cnc(nc31)N2` [Example 44, 2-((1R,3s,5S)-8-Oxabicyclo[3.2.1]octan-3-yl)-8-chloro-3-methyl-2,4,12,13-tetrahydro-11H-5,7-(azenometheno)dipyrazolo[3,4-b:5′,1′-g][1]oxa[4,6,8]triazacycloundecine], the IC50 in data set [1] is 4.3 nM; in data set [2], 13 nM. For the same molecule, the CLint scaled at 0.1 μM in data set [4] is under 0.24 L/h/kg. Moreover, the values for the concentration at 0.5 h in data set [6] (setting [8]) and in data set [6] (setting [9]) were 731 ± 223 ng/g and 0.468 ± 0.117 µg/mL, respectively. Besides, in data set [6], the Kp uu at 0.5 h came to 0.3 ± 0.04. The Kp at 0.5 h in data set [6] is 1.56 ± 0.23. In addition, the “fuplasma (% free)” value in data set [7] is on record as 25.5 % free.

For the molecule `[2H]C([2H])([2H])c1c2c(nn1[C@H]1CC[C@H](OC)CC1)OCCCn1nc(Cl)c3cnc(nc31)N2` [Example 50], the IC50 in data set [1] is 5.3 nM; in data set [2], 10 nM. The molecule also came in with a CLint scaled at 0.1 μM in data set [4] of under 0.24 L/h/kg. The “Adduct detected in GSH supplemented HLMs” value in data set [5] was “did not form GSH adduct; also recorded: None detected”.
